Results reported in patent publication US7973055B2, “Crystalline forms of a biphenyl compound” (Theravance, Inc., priority 2006, dated 2011).

Molecular target: T1, hM2 receptor (CHO-K1 cells) (Homo sapiens, UniProt P08172)
T1 construct: expressed in transfected cells; host or cells: CHO-K1 cells
T1 sequence (P08172 1-466): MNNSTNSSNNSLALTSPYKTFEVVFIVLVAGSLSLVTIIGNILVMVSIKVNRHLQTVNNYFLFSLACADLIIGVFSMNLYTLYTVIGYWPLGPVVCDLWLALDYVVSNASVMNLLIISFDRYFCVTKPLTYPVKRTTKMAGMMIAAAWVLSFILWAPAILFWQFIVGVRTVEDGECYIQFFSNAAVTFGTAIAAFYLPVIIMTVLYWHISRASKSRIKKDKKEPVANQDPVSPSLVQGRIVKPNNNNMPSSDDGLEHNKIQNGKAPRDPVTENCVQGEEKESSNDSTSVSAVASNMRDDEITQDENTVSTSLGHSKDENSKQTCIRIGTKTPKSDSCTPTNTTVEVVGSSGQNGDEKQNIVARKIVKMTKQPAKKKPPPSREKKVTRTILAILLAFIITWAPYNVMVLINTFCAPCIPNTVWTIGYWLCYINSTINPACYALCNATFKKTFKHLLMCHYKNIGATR
Assay: Blockade of agonist-mediated [35S]GTPγS binding
Assay type: biochemical
Conditions: CHO-K1 cells expressing hM2; this or a similar assay; read-out: Ki for blockade of oxotremorine-stimulated [35S]GTPγS binding
Procedure: In a second functional assay, the functional potency of test compounds can be determined by measuring the ability of the compounds to block oxotremorine-stimulated [^35S]GTPγS binding in CHO-K1 cells expressing the hM2 receptor.
At the time of use, frozen membranes were thawed and then diluted in assay buffer with a final target tissue concentration of 5-10 μg protein per well. The membranes were briefly homogenized using a Polytron PT-2100 tissue disrupter and then added to the assay plates. The EC90 value (effective concentration for 90% maximal response) for stimulation of [^35S]GTPγS binding by the agonist oxotremorine was determined in each experiment.
To determine the ability of a test compound to inhibit oxotremorine-stimulated [^35S]GTPγS binding, the following was added to each well of 96 well plates: 25 μL of assay buffer with [^35S]GTPγS (0.4 nM), 25 μL of oxotremorine (EC90) and GDP (3 μM), 25 μL of diluted test compound and 25 μL CHO cell membranes expressing the hM2 receptor. […] Microscint-20 scintillation liquid (50 μL) was added to each well, and each plate was sealed and radioactivity counted on a topcounter (PerkinElmer). Data were analyzed by nonlinear regression analysis with the GraphPad Prism Software package (GraphPad Software, Inc., San Diego, Calif.) using the non-linear regression, one-site competition equation. […]

Compound `CN(CCN1CCC(OC(=O)Nc2ccccc2-c2ccccc2)CC1)C(=O)c1cccc(C(=O)NCCNCc2ccc(O)cc2)c1` [compound of formula I, biphenyl-2-ylcarbamic acid 1-[2-({3-[2-(4-hydroxybenzylamino)ethylcarbamoyl]benzoyl}methylamino)ethyl]piperidin-4-yl ester] has a Ki of under 10 nM.
